Reference: patent US20110306503A1, “TEMPLATE-DEPENDENT NUCLEIC ACID POLYMERIZATION USING OLIGONUCLEOTIDE TRIPHOSPHATES BUILDING BLOCKS” (Yeda Research And Development Co. Ltd., priority 1999, published 2011)

Target: T1, Taq DNA polymerase (Thermus aquaticus, UniProt P19821)
T1 construct: a truncated version of Taq DNA polymerase (543 amino acids of the C-terminus part); made in house; host or cells: E. coli JM109 (pTTQ vector)
Assay: Labeled-primer extension assay
Type: biochemical
Details: for incorporation of complementary versus non-complementary dinucleotide: dinucleotide alone, FIG. 7 lanes 6 and 7; for template-dependent incorporation: template T83, ApG3p and TpC3p together, FIG. 8 lane 2
Protocol: The oligonucleotides that were used for this assay are detailed in Table 4 before. The reactions of labeled-primer extension included: polymerization buffer (40 mM Tricine-KOH, pH 8.0; 16 mM KCl; 5 mM MgCl2 and 4 μg BSA), 1 pmol template, 0.2 pmol of the p201 primer (labeled at its 5′ with P^32-γ-ATP using T4 polynucleotide kinase), 1 μM of the indicated dNTP's and 50 μM of the indicated di- or trinucleotide triphosphates in a total volume of 20 μl. The reactions were incubated for 5 minutes at 45° C., then 5 units of Taq DNA polymerase (see Example 3 for details) were added, followed by 20 minutes at 72° C. The reactions were terminated with 15 μl of stop solution (95% formamide, 20 mM EDTA and 0.05% bromophenol blue). Three μl were then separated on Urea-PAGE, and the radiolabeled DNA-bands were detected by phosphoimaging.

T1 sequence (P19821 290-832 limits assumed): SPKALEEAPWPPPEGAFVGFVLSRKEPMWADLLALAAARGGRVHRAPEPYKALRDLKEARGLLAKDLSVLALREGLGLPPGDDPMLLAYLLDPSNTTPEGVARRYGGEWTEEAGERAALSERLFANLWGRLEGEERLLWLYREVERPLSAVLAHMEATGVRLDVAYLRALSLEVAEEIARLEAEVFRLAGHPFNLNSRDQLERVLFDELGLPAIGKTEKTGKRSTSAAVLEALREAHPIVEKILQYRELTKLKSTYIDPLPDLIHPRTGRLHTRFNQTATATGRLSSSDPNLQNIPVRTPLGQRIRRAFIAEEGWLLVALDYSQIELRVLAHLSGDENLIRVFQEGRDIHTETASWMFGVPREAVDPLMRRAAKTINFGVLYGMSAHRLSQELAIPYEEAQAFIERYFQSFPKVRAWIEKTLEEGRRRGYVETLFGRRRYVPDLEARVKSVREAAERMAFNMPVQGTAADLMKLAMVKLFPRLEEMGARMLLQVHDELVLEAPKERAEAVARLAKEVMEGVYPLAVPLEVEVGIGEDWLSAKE

| Compound | incorporation of complementary versus non-complementary dinucleotide (template T24) | template-dependent incorporation | other results |
| --- | --- | --- | --- |
| thymidylyl-3′-5′-thymidylyl-3′-5′-thymidine (DNA TTT; DNA, phosphodiester; triphosphate form of the trinucleotide, triphosphate end not given here, further chemistry not fully specified) [TpTpT3p] |  |  | template-dependent incorporation in a mix with dCTP and dATP (template T24, FIG. 7 lanes 4 and 5): utilized |
| Nc1ccn([C@H]2C[C@H](OP(=O)(O)OC[C@H]3O[C@@H](n4cnc5c(N)ncnc54)C[C@@H]3O)[C@@H](CO)O2)c(=O)n1 [CpA3p, 2′-deoxycytidylyl(3′-5′)-2′-deoxyadenosine] | seems to be incorporated |  | template-dependent incorporation onto 3′ end of labeled primer p201 (templates T80 and T81, 50 μM dinucleotide triphosphates, FIG. 6 lanes 3-7): correct incorporation; efficiency of incorporation compared to the natural dNTP's (templates T80 and T81, FIG. 6 lanes 3-7 vs lane 2): lower efficiency |
| Cc1cn([C@H]2C[C@H](OP(=O)(O)OC[C@H]3O[C@@H](n4ccc(N)nc4=O)C[C@@H]3O)[C@@H](CO)O2)c(=O)[nH]c1=O [TpC3p, thymidylyl(3′-5′)-2′-deoxycytidine] |  | template-dependent incorporation |  |
| Nc1nc2c(ncn2[C@H]2C[C@H](O)[C@@H](COP(=O)(O)O[C@H]3C[C@H](n4cnc5c(N)ncnc54)O[C@@H]3CO)O2)c(=O)[nH]1 [ApG3p, 2′-deoxyadenylyl(3′-5′)-2′-deoxyguanosine] |  | template-dependent incorporation |  |
| Nc1ccn([C@H]2C[C@H](OP(=O)(O)OC[C@H]3O[C@@H](n4ccc(N)nc4=O)C[C@@H]3O)[C@@H](CO)O2)c(=O)n1 [CpC3p, 2′-deoxycytidylyl(3′-5′)-2′-deoxycytidine] | Only the complementary dinucleotide (CpA3p) seems to be incorporated |  |  |
